From patent US10986834B2, “Peptide-containing composition and stabilizer, stabilizing method, and storage method for peptide” (KANEKA CORPORATION, priority 2016, dated 2021)

Settings: 1% by mass in distilled water at 25° C.
Description: Potassium sulfate, dipotassium hydrogen phosphate, and potassium bicarbonate components were each dissolved in distilled water at 25° C. to be a concentration of 1% by mass and stirred sufficiently.

SMILES	pH
O=S(=O)([O-])[O-].[K+].[K+] [Potassium sulfate]	3.3
O=C([O-])O.[K+] [Potassium bicarbonate]	8.3
O=P([O-])([O-])O.[K+].[K+] [Dipotassium hydrogen phosphate]	9.0
